Assay results from paper PMC11822212, “High-throughput screening identifies Aurora kinase B as a critical therapeutic target for Merkel cell carcinoma” (Nature Communications, 2025).
Where a name gives a salt, the structure may show the parent alone.

How the values were obtained:
CRL-7250 cells = assay: qHTS cell viability (CellTiter-Glo, 72 h; primary screen), control cell line; format: cell-based
MCC26 cells (VN-MCC) = assay: qHTS cell viability (CellTiter-Glo, 72 h; primary and follow-up small molecule screen); format: cell-based, human
HEK293T cells = assay: qHTS cell viability (CellTiter-Glo, 72 h; primary screen), control cell line; format: cell-based, human
MCC13 cells (VN-MCC) = assay: qHTS cell viability (CellTiter-Glo, 72 h; primary and follow-up small molecule screen); format: cell-based, human
[1] = test system: VN-MCC cell lines (MCC13, MCC26, UISO); assay: qHTS cell viability, VN-MCC cell lines as a group (mean AUC, VN.MCC.avg); format: cell-based, human; settings: for VN-MCC_Avg_AUC: mean AUC of VN-MCC cell lines
WAGA cells (VP-MCC) = assay: qHTS cell viability (CellTiter-Glo, 72 h; primary and follow-up small molecule screen); format: cell-based, human
[2] = test system: VP-MCC cell lines (WAGA, MKL-1, MKL-2); assay: qHTS cell viability, VP-MCC cell lines as a group (mean AUC, VP.MCC.avg); format: cell-based, human; settings: for VP-MCC_Avg_AUC: mean AUC of VP-MCC cell lines
[3] = test system: MCC cell lines (WAGA, MKL-1, MKL-2, MCC13, MCC26, UISO); assay: qHTS cell viability, all six MCC cell lines as a group (mean AUC, MCC.avg); format: cell-based, human; settings: mean AUC of six MCC cell lines
[4] = test system: six MCC cell lines and four control cell lines; assay: qHTS cell viability, all 10 cell lines screened; format: cell-based
UISO cells (VN-MCC) = assay: qHTS cell viability (CellTiter-Glo, 72 h; primary and follow-up small molecule screen); format: cell-based, human
HACAT cells = assay: qHTS cell viability (CellTiter-Glo, 72 h; primary screen), control cell line; format: cell-based, human
MKL-2 cells (VP-MCC) = assay: qHTS cell viability (CellTiter-Glo, 72 h; primary and follow-up small molecule screen); format: cell-based, human
MKL-1 cells (VP-MCC) = assay: as above; format: cell-based, human
NIH-3T3 cells = assay: qHTS cell viability (CellTiter-Glo, 72 h; primary screen), control cell line; format: cell-based, mouse
[5] = test system: control cell lines (HACAT, HEK293T, CRL-7250, NIH-3T3); assay: qHTS cell viability, control cell lines as a group (mean AUC, Control.avg); format: cell-based; settings: mean AUC of control cell lines
[6] = NPC library, qHTS dose-response AUC, CRL7250 control
[7] = NPC library, qHTS dose-response AUC, MCC26
[8] = NPC library, qHTS dose-response AUC, HEK293T control
[9] = NPC library, qHTS dose-response AUC, MCC13
[10] = NPC library, therapeutic window: Control avg AUC minus VN-MCC avg AUC
[11] = NPC library, qHTS dose-response AUC, WAGA
[12] = NPC library, therapeutic window: Control avg AUC minus VP-MCC avg AUC
[13] = NPC library, therapeutic window: Control avg AUC minus MCC avg AUC
[14] = NPC library, qHTS dose-response AUC, UISO
[15] = NPC library, qHTS dose-response AUC, HACAT control
[16] = NPC library, qHTS dose-response AUC, MKL2
[17] = NPC library, qHTS dose-response AUC, MKL1
[18] = NPC library, qHTS dose-response AUC, NIH3T3 control
[19] = MIPE library, 11-point DRC, control cell line, sheet S2E
[20] = MIPE library, 11-point DRC, sheet S2E

`O=C(CCCCCCCCC#CI)Oc1ccccc1` [Phenyl 11-iodo-10-undecynoate] gave a CRL7250_AUC (CRL-7250 cells; [6]) of 487.776, an MCC26_AUC (MCC26 cells (VN-MCC); [7]) of 443.917 and an HEK293T_AUC (HEK293T cells; [8]) of 475.205. For the same compound, the MCC13_AUC (MCC13 cells (VN-MCC); [9]) was 470.776, the VN-MCC_Avg_AUC ([1]; NPC library) was 450.746 and the Control-VN-MCC [1, 10] was 36.2708. The WAGA_AUC (WAGA cells (VP-MCC); [11]) was 406.191, the VP-MCC_Avg_AUC ([2]; NPC library) was 405.485 and the Control-VP-MCC [2, 12] was 81.5325. It also gave an MCC_Avg_AUC ([3]; NPC library) of 428.115, a Control-MCC [4, 13] of 58.9016 and a UISO_AUC (UISO cells (VN-MCC); [14]) of 437.546. For the same compound, the HACAT_AUC (HACAT cells; [15]) was 489.285, the MKL2_AUC (MKL-2 cells (VP-MCC); [16]) was 402.29 and the MKL1_AUC (MKL-1 cells (VP-MCC); [17]) was 407.973. It also gave an NIH3T3_AUC (NIH-3T3 cells; [18]) of 495.803 and a Control_Avg_AUC ([5]; NPC library) of 487.017.
Compound `O=C(CCc1ccc(O)cc1)c1c(O)cc(O)cc1O` [Phloretin] has a CRL7250_AUC (CRL-7250 cells; [19]) of 456.981, a CRL7250_AUC (CRL-7250 cells; area under the dose-response curve, CRL7250 control cells, AUC<450 = reduced viability) of 456.981 and an MCC26_AUC (MCC26 cells (VN-MCC); [20]) of 472.357. The MCC26_AUC (MCC26 cells (VN-MCC); area under the dose-response curve, MCC26 cells, AUC<450 = reduced viability) was 472.357, the “Area under the dose-response curve (AUC) MCC26 Replicate 1” value (MCC26 cells (VN-MCC); follow-up screen, MCC26, replicate 1) was 472.4 and the “Area under the dose-response curve (AUC) MCC26 Replicate 2” value (MCC26 cells (VN-MCC); follow-up screen, MCC26, replicate 2) was 446.6. The “Area under the dose-response curve (AUC) MCC26 Replicate 3” value (MCC26 cells (VN-MCC); follow-up screen, MCC26, replicate 3) was 497.7, the HEK293T_AUC (HEK293T cells; [19]) was 470.007 and the HEK293T_AUC (HEK293T cells; area under the dose-response curve, HEK293T control cells, AUC<450 = reduced viability) was 470.007. The MCC13_AUC (MCC13 cells (VN-MCC); [20]) was 472.315, the MCC13_AUC (MCC13 cells (VN-MCC); area under the dose-response curve, MCC13 cells, AUC<450 = reduced viability) was 472.315 and the “Area under the dose-response curve (AUC) MCC13 Replicate 1” value (MCC13 cells (VN-MCC); follow-up screen, MCC13, replicate 1) was 534.6. The “Area under the dose-response curve (AUC) MCC13 Replicate 2” value (MCC13 cells (VN-MCC); follow-up screen, MCC13, replicate 2) was 495.7, the “Area under the dose-response curve (AUC) MCC13 Replicate 3” value (MCC13 cells (VN-MCC); follow-up screen, MCC13, replicate 3) was 492.0 and the Control-VN-MCC ([1]; MIPE library, Control AUC minus VN-MCC AUC (therapeutic window), sheet S2E) was -6.696. It also gave a VN-MCC_Avg_AUC ([1]; MIPE library, sheet S2E) of 476.56, a WAGA_AUC (WAGA cells (VP-MCC); [20]) of 402.295 and a WAGA_AUC (WAGA cells (VP-MCC); area under the dose-response curve, WAGA cells, AUC<450 = reduced viability) of 402.295. The “Area under the dose-response curve (AUC) WAGA Replicate 1” value (WAGA cells (VP-MCC); follow-up screen, WAGA, replicate 1) was 571.8, the “Area under the dose-response curve (AUC) WAGA Replicate 2” value (WAGA cells (VP-MCC); follow-up screen, WAGA, replicate 2) was 490.2 and the “Area under the dose-response curve (AUC) WAGA Replicate 3” value (WAGA cells (VP-MCC); follow-up screen, WAGA, replicate 3) was 485.7. For the same compound, the Control-VP-MCC ([2]; MIPE library, Control AUC minus VP-MCC AUC (therapeutic window), sheet S2E) was 54.4642, the VP-MCC_Avg_AUC ([2]; MIPE library, sheet S2E) was 415.4 and the MCC_Avg_AUC ([3]; MIPE library, sheet S2E) was 445.98. It also gave a Control-MCC ([4]; MIPE library, Control AUC minus MCC AUC (therapeutic window), sheet S2E) of 23.8842, a UISO_AUC (UISO cells (VN-MCC); [20]) of 485.008 and a UISO_AUC (UISO cells (VN-MCC); area under the dose-response curve, UISO cells, AUC<450 = reduced viability) of 485.008. The “Area under the dose-response curve (AUC) UISO Replicate 1” value (UISO cells (VN-MCC); follow-up screen, UISO, replicate 1) was 542.5, the “Area under the dose-response curve (AUC) UISO Replicate 2” value (UISO cells (VN-MCC); follow-up screen, UISO, replicate 2) was 515.8 and the “Area under the dose-response curve (AUC) UISO Replicate 3” value (UISO cells (VN-MCC); follow-up screen, UISO, replicate 3) was 481.4. For the same compound, the HACAT_AUC (HACAT cells; [19]) was 476.785, the HACAT_AUC (HACAT cells; area under the dose-response curve, HACAT control cells, AUC<450 = reduced viability) was 476.785 and the MKL2_AUC (MKL-2 cells (VP-MCC); [20]) was 410.273. For the same compound, the MKL2_AUC (MKL-2 cells (VP-MCC); area under the dose-response curve, MKL-2 cells, AUC<450 = reduced viability) was 410.273, the “Area under the dose-response curve (AUC) MKL-2 Replicate 1” value (MKL-2 cells (VP-MCC); follow-up screen, MKL-2, replicate 1) was 493.4 and the “Area under the dose-response curve (AUC) MKL-2 Replicate 2” value (MKL-2 cells (VP-MCC); follow-up screen, MKL-2, replicate 2) was 509.3. For the same compound, the “Area under the dose-response curve (AUC) MKL-2 Replicate 3” value (MKL-2 cells (VP-MCC); follow-up screen, MKL-2, replicate 3) was 493.0, the MKL1_AUC (MKL-1 cells (VP-MCC); [20]) was 433.632 and the MKL1_AUC (MKL-1 cells (VP-MCC); area under the dose-response curve, MKL-1 cells, AUC<450 = reduced viability) was 433.632. For the same compound, the “Area under the dose-response curve (AUC) MKL-1 Replicate 1” value (MKL-1 cells (VP-MCC); follow-up screen, MKL-1, replicate 1) was 526.8, the “Area under the dose-response curve (AUC) MKL-1 Replicate 2” value (MKL-1 cells (VP-MCC); follow-up screen, MKL-1, replicate 2) was 492.2 and the “Area under the dose-response curve (AUC) MKL-1 Replicate 3” value (MKL-1 cells (VP-MCC); follow-up screen, MKL-1, replicate 3) was 497.0. For the same compound, the NIH3T3_AUC (NIH-3T3 cells; [19]) was 475.685, the NIH3T3_AUC (NIH-3T3 cells; area under the dose-response curve, NIH3T3 control cells, AUC<450 = reduced viability) was 475.685 and the Control_Avg_AUC ([5]; MIPE library, sheet S2E) was 469.864.
Work on `O=C1OC(CCN2CCCCC2)OC1(c1ccccc1)c1ccccc1` (stereo not shown) [Pipoxolan hydrochloride] yielded a CRL7250_AUC (CRL-7250 cells; [6]) of 487.056, an MCC26_AUC (MCC26 cells (VN-MCC); [7]) of 460.749 and an HEK293T_AUC (HEK293T cells; [8]) of 445.369. The MCC13_AUC (MCC13 cells (VN-MCC); [9]) was 478.552, the VN-MCC_Avg_AUC ([1]; NPC library) was 450.651 and the Control-VN-MCC [1, 10] was 22.7364. For the same compound, the WAGA_AUC (WAGA cells (VP-MCC); [11]) was 433.006, the VP-MCC_Avg_AUC ([2]; NPC library) was 421.002 and the Control-VP-MCC [2, 12] was 52.3854. For the same compound, the MCC_Avg_AUC ([3]; NPC library) was 435.827, the Control-MCC [4, 13] was 37.5609 and the UISO_AUC (UISO cells (VN-MCC); [14]) was 412.652. For the same compound, the HACAT_AUC (HACAT cells; [15]) was 493.052, the MKL2_AUC (MKL-2 cells (VP-MCC); [16]) was 392.534 and the MKL1_AUC (MKL-1 cells (VP-MCC); [17]) was 437.466. For the same compound, the NIH3T3_AUC (NIH-3T3 cells; [18]) was 468.074 and the Control_Avg_AUC ([5]; NPC library) was 473.388.
